ChEMBL document CHEMBL1201862, “PubChem BioAssay data set” (2004)
Values belong to the compound of their own block, whether it stands above or below them. Activity calls are given as the source filed them.

Tests used:
[1] = ADAM10 protease inhibitors, dose response, selectivity assay for ADAM17 exosite inhibitor project, biochemical, FRET peptide substrate, recombinant human ADAM10 (AID 743259);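 also: ADAM10 enzyme cleaving a FRET peptide substrate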
[2] = molecular target: Disintegrin and metalloproteinase domain-containing protein 17 (Homo sapiens, UniProt P78536); test: exosite inhibitors of ADAM17, dose response, biochemical (AID 743260)
[3] = molecular target: T1, Low molecular weight phosphotyrosine protein phosphatase (Homo sapiens, UniProt P24666); type: functional; conditions: read-out: IC50_Mean
[4] = molecular target: T1, Low molecular weight phosphotyrosine protein phosphatase; type: functional; conditions: read-out: IC50_Mean; remark: listed apart in the source
[5] = HEK293T cytotoxicity, dose response, cytotoxicity control for miR-122 modulator project, cell-based, inhibitor set, cherry-pick, set 2 (AID 720697); type: functional
[6] = lymphoblastoid cell cytotoxicity, dose response, cytotoxicity control, plate reader, dry powder, set 2 (AID 624367); type: functional
[7] = miR-122 activators in hepatoma reporter cells, dose response, cell-based, Huh7 psiCHECK-miR122, Renilla luciferase, cherry-picked (AID 651956); type: functional;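 also: huh7 hepatoma cells stably carrying a psiCHECK-2 miR-122 sensor plasmid; renilla luciferase signal reporting endogenous miR-122 activity after 48 h compound exposure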
[8] = HEK293 Cytotoxicity Assay Measured in Cell-Based System Using Plate Reader - 7071-01_Inhibitor_Dose_CherryPick_Activity_Set2.; type: functional
[9] = A2780 ovarian cancer cell cytotoxicity, dose response, cytotoxicity control, plate reader, dry powder samples (AID 743046); type: functional, cell-based
[10] = system: HEK293; test: HEK293T cell cytotoxicity, dose response, cytotoxicity control, ATP luminescence, cherry-pick samples (AID 687005); type: functional, cell-based; conditions: Homo sapiens;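 also: cells exposed to compound for 48 hours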
[11] = molecular target: Paired box protein Pax-8 (Homo sapiens, UniProt Q06710); test: inhibitors of PAX8-driven TPO luciferase reporter, dose response, RMG-I cells, cherry-pick (AID 687027); type: functional, cell-based;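 also: luciferase reporter driven by Pax8 target thyroperoxidase promoter measured by SteadyGlo luminescence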
[12] = LMP1-driven NF-kB reporter inhibition, dose response, cell-based, luciferase reporter, luminescence, dry powder, set 2 (AID 624376); type: functional
[13] = cytotoxicity in OVCAR8 ovarian cancer cells, dose response, PAX8 project, cell-based, plate reader, dry powder samples (AID 743197); type: functional; conditions: OVCAR-8
[14] = molecular target: Mu-type opioid receptor (Homo sapiens, UniProt P35372); test: Late-stage results from the probe development effort to identify antagonists of OPRK1: luminescence-based cell-based dose response OPRM1 counterscreen, Set 2.; type: functional
[15] = molecular target: Sphingosine 1-phosphate receptor 1 (Homo sapiens, UniProt P21453); test: Late-stage counterscreen for antagonists of kappa opioid receptor 1 (OPRK1): fluorescence-based cell-based dose response assay to identify antagonists of Sphingosine 1-Phosphate Receptor 1 (S1P1).; type: functional
[16] = molecular target: Kappa-type opioid receptor (Homo sapiens, UniProt P41145); test: Late-stage fluorescence-based cell-based dose response assay for antagonists of kappa opioid receptor 1 (OPRK1).; type: functional
[17] = molecular target: Delta-type opioid receptor (Homo sapiens, UniProt P41143); test: Late-stage results from the probe development effort to identify antagonists of OPRK1: fluorescence-based cell-based dose response OPRD1 counterscreen, Set 2.; type: functional
Chain of Delta-type opioid receptor (P41143 whole entry): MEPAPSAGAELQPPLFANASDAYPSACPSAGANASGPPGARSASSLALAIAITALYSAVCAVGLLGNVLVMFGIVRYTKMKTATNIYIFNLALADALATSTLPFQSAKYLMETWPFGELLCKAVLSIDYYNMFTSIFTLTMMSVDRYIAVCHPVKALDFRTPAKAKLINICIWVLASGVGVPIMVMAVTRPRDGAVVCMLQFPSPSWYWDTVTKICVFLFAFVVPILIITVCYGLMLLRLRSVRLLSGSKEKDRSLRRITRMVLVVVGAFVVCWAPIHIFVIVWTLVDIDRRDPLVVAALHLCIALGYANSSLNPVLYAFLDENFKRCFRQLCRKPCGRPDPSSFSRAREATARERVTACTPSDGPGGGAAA

T1 sequence (P24666 whole entry): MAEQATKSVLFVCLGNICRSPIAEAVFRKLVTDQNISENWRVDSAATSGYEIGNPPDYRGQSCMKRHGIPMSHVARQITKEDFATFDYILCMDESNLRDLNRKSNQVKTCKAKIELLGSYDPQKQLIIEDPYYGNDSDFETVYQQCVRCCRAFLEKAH
Chain of Sphingosine 1-phosphate receptor 1 (P21453 whole entry): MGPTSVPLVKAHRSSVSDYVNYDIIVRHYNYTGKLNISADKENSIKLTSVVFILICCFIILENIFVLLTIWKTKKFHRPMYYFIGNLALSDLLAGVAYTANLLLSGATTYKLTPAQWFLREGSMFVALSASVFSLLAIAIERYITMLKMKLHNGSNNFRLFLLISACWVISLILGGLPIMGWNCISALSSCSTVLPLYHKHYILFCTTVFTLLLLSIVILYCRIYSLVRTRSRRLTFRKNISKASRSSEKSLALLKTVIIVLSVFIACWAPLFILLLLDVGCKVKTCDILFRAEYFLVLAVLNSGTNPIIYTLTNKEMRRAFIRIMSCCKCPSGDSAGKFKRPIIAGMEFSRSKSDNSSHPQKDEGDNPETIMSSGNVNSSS
Chain of Mu-type opioid receptor (P35372 whole entry): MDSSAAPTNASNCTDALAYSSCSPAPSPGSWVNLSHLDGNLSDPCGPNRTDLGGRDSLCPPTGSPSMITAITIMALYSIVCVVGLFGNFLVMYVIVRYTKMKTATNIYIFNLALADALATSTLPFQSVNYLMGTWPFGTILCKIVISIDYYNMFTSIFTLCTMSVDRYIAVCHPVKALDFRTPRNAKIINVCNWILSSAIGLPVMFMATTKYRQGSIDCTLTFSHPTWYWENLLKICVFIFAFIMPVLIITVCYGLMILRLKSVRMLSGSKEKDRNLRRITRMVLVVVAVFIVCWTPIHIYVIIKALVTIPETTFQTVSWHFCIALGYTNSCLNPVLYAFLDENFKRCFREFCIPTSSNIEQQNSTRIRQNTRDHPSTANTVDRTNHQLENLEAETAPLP
Chain of Kappa-type opioid receptor (P41145 whole entry): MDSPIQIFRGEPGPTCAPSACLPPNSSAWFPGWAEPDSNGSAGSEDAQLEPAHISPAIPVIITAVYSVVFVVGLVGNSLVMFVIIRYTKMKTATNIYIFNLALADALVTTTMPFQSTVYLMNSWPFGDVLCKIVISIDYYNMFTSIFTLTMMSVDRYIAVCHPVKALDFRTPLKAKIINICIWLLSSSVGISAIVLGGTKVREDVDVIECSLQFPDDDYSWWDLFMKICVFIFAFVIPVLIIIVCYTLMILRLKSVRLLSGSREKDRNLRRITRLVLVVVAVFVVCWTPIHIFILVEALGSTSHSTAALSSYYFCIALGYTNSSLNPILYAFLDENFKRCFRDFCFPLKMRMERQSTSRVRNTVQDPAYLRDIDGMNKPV
Chain of Disintegrin and metalloproteinase domain-containing protein 17 (P78536 whole entry, the tested form may be a part): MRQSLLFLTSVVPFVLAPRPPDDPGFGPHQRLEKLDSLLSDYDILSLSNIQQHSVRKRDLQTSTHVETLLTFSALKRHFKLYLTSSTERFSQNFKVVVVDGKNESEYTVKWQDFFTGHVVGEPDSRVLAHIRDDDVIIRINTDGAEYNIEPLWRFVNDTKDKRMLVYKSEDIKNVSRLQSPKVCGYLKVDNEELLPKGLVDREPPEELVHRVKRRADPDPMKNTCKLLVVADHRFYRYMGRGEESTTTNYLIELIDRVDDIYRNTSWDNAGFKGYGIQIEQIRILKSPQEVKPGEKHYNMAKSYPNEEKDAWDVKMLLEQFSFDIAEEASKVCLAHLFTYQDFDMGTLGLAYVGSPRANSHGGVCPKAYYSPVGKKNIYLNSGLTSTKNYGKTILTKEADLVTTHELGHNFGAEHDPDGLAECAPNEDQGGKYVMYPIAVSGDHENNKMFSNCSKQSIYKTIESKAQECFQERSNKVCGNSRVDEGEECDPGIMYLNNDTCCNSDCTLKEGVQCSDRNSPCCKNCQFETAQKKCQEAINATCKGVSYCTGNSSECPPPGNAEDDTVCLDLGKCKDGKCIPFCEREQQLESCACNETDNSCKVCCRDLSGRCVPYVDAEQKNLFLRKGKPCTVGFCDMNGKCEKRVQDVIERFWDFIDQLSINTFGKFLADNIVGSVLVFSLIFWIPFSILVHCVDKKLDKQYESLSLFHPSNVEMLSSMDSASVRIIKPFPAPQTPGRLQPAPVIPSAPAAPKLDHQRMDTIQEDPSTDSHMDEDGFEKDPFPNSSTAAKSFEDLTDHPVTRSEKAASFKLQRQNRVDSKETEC
Chain of Paired box protein Pax-8 (Q06710 whole entry): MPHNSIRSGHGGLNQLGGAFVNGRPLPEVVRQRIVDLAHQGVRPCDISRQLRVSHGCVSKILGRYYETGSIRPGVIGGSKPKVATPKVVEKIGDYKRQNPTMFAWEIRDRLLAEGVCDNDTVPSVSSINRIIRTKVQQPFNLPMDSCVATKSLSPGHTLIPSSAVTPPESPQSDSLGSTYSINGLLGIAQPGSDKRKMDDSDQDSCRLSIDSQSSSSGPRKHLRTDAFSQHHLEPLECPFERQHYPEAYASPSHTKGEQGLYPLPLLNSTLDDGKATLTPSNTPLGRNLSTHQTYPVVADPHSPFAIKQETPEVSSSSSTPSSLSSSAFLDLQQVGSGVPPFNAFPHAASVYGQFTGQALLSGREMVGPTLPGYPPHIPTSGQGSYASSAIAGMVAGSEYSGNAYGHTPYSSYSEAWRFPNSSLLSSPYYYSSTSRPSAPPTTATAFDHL

Compound: COC(=O)C1=C(c2cccc(OCc3ccccc3)c2)C[C@@H]2CC[C@H]1N2C(=O)NCCOc1ccc(OC)cc1
IC50 [1]: 12.1 µM (inactive)
IC50 [2]: > 69.5 µM (inactive)

IC50 [3]: 12.8 µM (active)
IC50 [4]: 8.2 µM (active)
Compound: COCCNc1nc(NCc2cccc(OC)c2OC)c2sccc2n1

Compound: C[C@H](CO)N1C[C@H](C)[C@H](CN(C)C(=O)NC2CCCCC2)Oc2cc(/C=C/c3ccccc3)ccc2S1(=O)=O
AC50 [5]: 15.9 µM (active)
AbsAC35 [6]: 53.47 µM
AC50 [7]: 19.1 µM (active)

Compound: COc1cccc(S(=O)(=O)N(C)C[C@@H]2OCc3ccccc3-c3ccccc3C(=O)N([C@@H](C)CO)C[C@@H]2C)c1
AC50 [8]: 36 µM (active)
AC50 [9]: 53.8 µM (active)
AC50 [10]: 36 µM (active)
AC50 [11]: 15.9 µM (active)

Compound: Cc1noc(C)c1S(=O)(=O)Nc1ccc2c(c1)C(=O)N([C@@H](C)CO)C[C@H](C)[C@@H](CN(C)Cc1ccc(C(F)(F)F)cc1)OCCCC[C@@H](C)O2
AbsAC35 [12]: 101.91 µM

Compound: COc1ccc(-c2cn(CC[C@H]3CC[C@@H](NC(=O)Cc4ccccn4)[C@@H](CO)O3)nn2)cc1
AC50 [13]: > 70 µM (inactive)
AC50 [9]: 0.315 µM (active)

IC50 [14]: > 50 µM (inactive)
IC50 [15]: > 50 µM (inactive)
IC50 [16]: 6.85 µM (active)
IC50 [17]: > 50 µM (inactive)
Compound: CCOC(=O)c1ccc(N2CC3CCCCN3C2c2cccc(OC)c2O)cc1 (stereo not drawn)
